Data on one compound can be found in US20240245783A1, “METALLO-BETA-LACTAMASE INHIBITOR” (priority 2021, published 2024).

Structures are written as SMILES.

This assay has as its system E. coli clinical isolate expressing IMP-1. As to the kind of experiment: Meropenem MIC against E. coli clinical isolate expressing IMP-1 (Test Example 10). It counts as cell-based. The conditions noted are these: Escherichia coli, 24 h, read-out: minimum inhibitory concentration. The procedure: The enhancing effect of DTPA-ADCA on the susceptibility of E. coli clinical isolate expressing IMP-1 to a carbapenem antibacterial agent (meropenem) was evaluated by the following method. The E. coli clinical isolate was cultured overnight with shaking in LB medium. The bacterial solution was diluted to 1/1000 with LB medium, used as a test bacterial solution, and then seeded in a 96-well plate. Meropenem (Wako Pure Chemical Industries, Ltd.) was added to the bacterial solution, thereby performing two-step dilution from a maximum of 10 μg/ml. The bacteria were cultured in an incubator at 37° C. for one day, and growth at that time was measured by turbidity (655 nm). The meropenem concentration at which no bacterial growth had been observed was defined as the minimum inhibitory concentration.
The effect of DTPA-ADCA on the susceptibility of an E. coli clinical isolate to meropenem was evaluated by the following method. The E. coli clinical isolate was cultured overnight with shaking in LB medium. The bacterial solution was diluted to 1/1000 with LB medium, used as the test bacterial solution, and then seeded in a 96-well plate. Meropenem (Wako Pure Chemical Industries, Ltd.) was added to this bacterial solution in the range of 0.1 μg/ml to 0.005 μg/ml. Here, DTPA or DTPA-ADCA was used in combination therewith at a concentration of […], and the effect on bacterial growth was examined. The bacteria were cultured in an incubator at 37° C. for one day, and the growth at that time was measured by turbidity (655 nm).
FIG. 20 depicts the results. Multidrug-resistant E. coli was cultured with compounds having the indicated concentrations and the bacterial load was assessed by turbidity after 24 hours. […] Combined use of DTPA-ADCA (20 μM) reduced the minimum inhibitory concentration of meropenem to […] and enhanced the antibacterial activity by 100 times.

Regarding `C[C@@H](O)[C@H]1C(=O)N2C(C(=O)O)=C(S[C@@H]3CN[C@H](C(=O)N(C)C)C3)[C@H](C)[C@H]12` [meropenem, reference compound], the MIC came to 10 µg/mL.
